The values that follow come from patent US5635479A, “Treatment of gynecological malignancies with biologically active peptides” (Magainin Pharmaceuticals Inc., priority 1995, dated 1997).

The subject of the test is murine Spontaneous Ovarian Teratoma cells (SOT cells). The experiment in a line: Survival and ascites accumulation of mice injected with Spontaneous Ovarian Teratoma cells. The class given is in vivo. As to conditions: for ILS / Median Survival Time: Table I, i.p. days 2 and 5 after SOT cells; for delay of accumulation of ascites fluid (body weight data): Example 1, FIG. 1, untreated mice began to accumulate fluid 5 to 7 days after implantation; for increase in lifespan: Example 1, FIG. 2, median day of death as endpoint; for accumulation of ascites fluid (body weight data) vs control group: Example 3, FIG. 4, peptides 20 mg/kg at 2 days, or 2 and 5 days, adriamycin 5 mg/kg on day 2 only; for survival time and survivors vs control group: Example 3, FIG. 3, 20 mg/kg at 2 days, or at 2 days and 5 days after SOT cells. The procedure: Groups of mice, with six mice in each group, were injected with murine Spontaneous Ovarian Teratoma cells (SOT cells). At day 2, or at day 2 and day 5 after injection, the mice were injected with a saline solution, 5 mg/kg adriamycin (day 2 only), with 22 mg/kg of a peptide having the structure (SEQ ID NO:115)-NH2, or, in which each amino acid residue of (SEQ ID NO:115)-NH2 is a D-amino acid residue, such peptide hereinafter referred to as D-(SEQ ID NO:115)-NH2 or with 130 mg/kg of Cecropin A (SEQ ID NO:116)-NH2. The animals were monitored for survival time, the number of survivors in each group, the increase in lifespan, and the increase in body weight.
The treatment with adriamycin increased the lifespan by 76%.
Groups of mice, with 5 or 6 mice in each group, were injected with Spontaneous Ovarian Teratoma Cells. At 2 days and 5 days after the injection of the Spontaneous Ovarian Teratoma Cells (SOT cells), the groups of mice were injected intraperitoneally with a control saline solution, adriamycin, or with one of the following peptides:
The mice in each group were then monitored for median survival time (in days) and for increase in life span (ILS) vis a vis the control group. The median survival time is the day of death of the third mouse in each group. The results for the groups of mice given intraperitoneal injections of peptide at days 2 and 5 following injection of SOT cells are given in Table I below.
Groups of mice, with 6 mice in each group, were injected with Spontaneous Ovarian Teratoma Cells as described in Example 2. At 2 days, or at 2 days and 5 days after the injection of the SOT cells, the groups of mice were injected with saline (control), adriamycin (5 mg/kg-on day 2 only), or with 20 mg/kg of (SEQ ID NO:115)-NH2 or D-(SEQ ID NO:115)-NH2. The mice were then monitored for survival time, as well as for body weight.

The mark [1] stands for this setting: 22 mg/kg D-(SEQ ID NO:115)-NH2, 130 mg/kg (SEQ ID NO:116)-NH2, 5 mg/kg adriamycin.
Where [2] appears, read: administered on day 2 only, 22 mg/kg D-(SEQ ID NO:115)-NH2, 130 mg/kg (SEQ ID NO:116)-NH2, 5 mg/kg adriamycin.
Where [3] appears, read: administered on day 2 and day 5, 22 mg/kg D-(SEQ ID NO:115)-NH2, 130 mg/kg (SEQ ID NO:116)-NH2.
Setting [4] is: dose 130 mg/kg/day, control value not given.

Square brackets hold non-standard residues; d marks the D form. Ends that are not written are not given here. Peptide text beside a SMILES is read from it. * marks the point of attachment. Octanoyl = CCCCCCCC(=O)*

As for `CCCCCCCC(=O)N[C@@H](CCCCN)C(=O)N[C@H](C(=O)N[C@@H](C)C(=O)NCC(=O)N[C@@H](CCCCN)C(=O)N[C@H](C(=O)N[C@@H](C)C(=O)N[C@@H](CCCCN)C(=O)N[C@H](C(=O)N[C@@H](C)C(=O)NCC(=O)N[C@@H](CCCCN)C(=O)N[C@H](C(=O)N[C@@H](C)C(=O)N[C@@H](CCCCN)C(=O)N[C@H](C(=O)N[C@@H](C)C(=O)NCC(=O)N[C@@H](CCCCN)C(=O)N[C@H](C(=O)N[C@@H](C)C(N)=O)[C@@H](C)CC)[C@@H](C)CC)[C@@H](C)CC)[C@@H](C)CC)[C@@H](C)CC)[C@@H](C)CC` [Oct-(SEQ ID NO:27)-NH2] (Octanoyl-KIAGKIAKIAGKIAKIAGKIA-NH2), under “dose 20 mg/kg/day, controls 21”, the ILS (usually how much longer treated animals lived than controls) is recorded as 100% and the “Median Survival Time” value is on record as 42 days.

Consider `COc1cccc2c1C(=O)c1c(O)c3c(c(O)c1C2=O)C[C@@](O)(C(=O)CO)C[C@@H]3O[C@H]1C[C@H](N)[C@H](O)[C@H](C)O1` [adriamycin, reference compound], for which the “accumulation of ascites fluid (body weight data) vs control group” value (from here on “accumulation … vs control group”) was “delayed and was also significantly less”. Moreover, under setting [1], the “delay of accumulation of ascites fluid (body weight data)” value (shortened to “delay of accumulation of ascites fluid”) is on record as “at least 20 days”. Moreover, the increase in lifespan under setting [2] was 76%.

In the case of “(SEQ ID NO:115)-NH2: peptide having the structure (SEQ ID NO:115)-NH2; sequence not printed in the text (GIGKFLKKAKKFAKAFVKIINN-NH2)”, the “survival time and survivors vs control group” value was “significantly greater survival times and had more survivors”; the “accumulation … vs control group” value was “delayed and was also significantly less”. For the setting “dose 20 mg/kg/day, controls 21”, the ILS was found to be 100% and the “Median Survival Time” value was determined as 42 days. Further, under “dose 22 mg/kg/day, controls 21”, the ILS was determined as 81% and the “Median Survival Time” value came out at 38 days.

As to “(SEQ ID NO:116)-NH2: Cecropin A, amide (KWKLFKKIEKVGQNIRDGIIKAGPAVAVVGQATQIAK-NH2)”, under setting [1], the “delay of accumulation of ascites fluid” value was “at least 20 days”. In addition, the increase in lifespan is 112% under setting [3] and 100% under setting [2]. This molecule returned an ILS under setting [4] of 112%. The “Median Survival Time” value under setting [4] turned out to be 36 days.

For the molecule “(SEQ ID NO:117)-NH2: peptide of the sequence listing, amide; sequence not printed in the text (GIGKFLKSAKKFGKAFVKILNS-NH2)”, under “dose 45 mg/kg/day, controls 21”, the ILS is given as 83% and the “Median Survival Time” value turned out to be 38 days.

As to “D-(SEQ ID NO:115)-NH2: (SEQ ID NO:115)-NH2 in which each amino acid residue is a D-amino acid residue (G[dI]G[dK][dF][dL][dK][dK][dA][dK][dK][dF][dA][dK][dA][dF][dV][dK][dI][dI][dN][dN]-NH2; N-terminus assumed; SMILES CC[C@@H](C)[C@@H](NC(=O)CN)C(=O)NCC(=O)N[C@H](CCCCN)C(=O)N[C@H](Cc1ccccc1)C(=O)N[C@H](CC(C)C)C(=O)N[C@H](CCCCN)C(=O)N[C@H](CCCCN)C(=O)N[C@H](C)C(=O)N[C@H](CCCCN)C(=O)N[C@H](CCCCN)C(=O)N[C@H](Cc1ccccc1)C(=O)N[C@H](C)C(=O)N[C@H](CCCCN)C(=O)N[C@H](C)C(=O)N[C@H](Cc1ccccc1)C(=O)N[C@@H](C(=O)N[C@H](CCCCN)C(=O)N[C@@H](C(=O)N[C@@H](C(=O)N[C@H](CC(N)=O)C(=O)N[C@H](CC(N)=O)C(N)=O)[C@H](C)CC)[C@H](C)CC)C(C)C)”, the “survival time and survivors vs control group” value was “significantly greater survival times and had more survivors”; the “accumulation … vs control group” value is “delayed and was also significantly less”. Under setting [1], the “delay of accumulation of ascites fluid” value is “at least 20 days”. This molecule also gave an increase in lifespan under setting [3] of 144%. The molecule further displayed an increase in lifespan under setting [2] of 115%. Further, for the setting “dose 22 mg/kg/day, controls 17”, the ILS worked out at 144% and the “Median Survival Time” value is 41.5 days. Also, under “dose 22 mg/kg/day, controls 21”, the ILS amounted to 52% and the “Median Survival Time” value was 32 days.

For the molecule “D-(SEQ ID NO:117)-NH2: D-form of (SEQ ID NO:117)-NH2 (G[dI]G[dK][dF][dL][dK][dS][dA][dK][dK][dF]G[dK][dA][dF][dV][dK][dI][dL][dN][dS]-NH2; N-terminus assumed; SMILES CC[C@@H](C)[C@@H](NC(=O)CN)C(=O)NCC(=O)N[C@H](CCCCN)C(=O)N[C@H](Cc1ccccc1)C(=O)N[C@H](CC(C)C)C(=O)N[C@H](CCCCN)C(=O)N[C@H](CO)C(=O)N[C@H](C)C(=O)N[C@H](CCCCN)C(=O)N[C@H](CCCCN)C(=O)N[C@H](Cc1ccccc1)C(=O)NCC(=O)N[C@H](CCCCN)C(=O)N[C@H](C)C(=O)N[C@H](Cc1ccccc1)C(=O)N[C@@H](C(=O)N[C@H](CCCCN)C(=O)N[C@@H](C(=O)N[C@H](CC(C)C)C(=O)N[C@H](CC(N)=O)C(=O)N[C@H](CO)C(N)=O)[C@H](C)CC)C(C)C)”, under “dose 15 mg/kg/day, controls 21”, the ILS worked out at 67% and the “Median Survival Time” value is reported as 35 days.
